Assay [1] concerns the target Beta-2 adrenergic receptor (Homo sapiens, UniProt P07550). In words: Inhibition of beta2 adrenoreceptor (unknown origin).
Assay [2] addresses T1, Glycylpeptide N-tetradecanoyltransferase 1 (Homo sapiens, UniProt P30419).
T1 sequence (P30419 whole entry): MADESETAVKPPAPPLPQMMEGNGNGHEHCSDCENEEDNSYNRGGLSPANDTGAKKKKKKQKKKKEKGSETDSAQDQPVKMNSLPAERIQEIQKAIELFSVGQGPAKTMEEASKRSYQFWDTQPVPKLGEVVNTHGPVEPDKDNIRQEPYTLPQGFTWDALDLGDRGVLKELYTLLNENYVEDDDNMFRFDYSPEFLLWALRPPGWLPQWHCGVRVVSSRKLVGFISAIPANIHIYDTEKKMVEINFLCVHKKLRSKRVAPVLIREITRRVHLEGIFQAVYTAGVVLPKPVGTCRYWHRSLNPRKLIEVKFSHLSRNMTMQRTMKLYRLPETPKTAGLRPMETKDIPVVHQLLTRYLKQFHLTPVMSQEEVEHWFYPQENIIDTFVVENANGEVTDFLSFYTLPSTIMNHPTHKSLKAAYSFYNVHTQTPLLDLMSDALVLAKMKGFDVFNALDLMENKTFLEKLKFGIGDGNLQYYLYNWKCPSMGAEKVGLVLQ
Put plainly: Inhibition of human N-myristoyltransferase assessed as reduction in CoASH production by fluorogenic detection based assay.

The target in assay [3] is cAMP and cAMP-inhibited cGMP 3',5'-cyclic phosphodiesterase 10A (Homo sapiens, UniProt Q9Y233). In words: Inhibition of human PDE10A2 using cAMP substrate by HTRF assay.
A further assay has as its target GTPase HRas (Homo sapiens, UniProt P01112, G12V). In words: Inhibition GST-tagged recombinant HRAS G12V mutant (1 to 166 amino acids) (unknown origin) expressed in Escherichia coli C41(DE3) by SPR assay.
In the next assay the target is CREB-binding protein (Homo sapiens, UniProt Q92793). Put plainly: Binding affinity to Poly-Histidine-tagged CBP (unknown origin) expressed in Escherichia coli BL21(DE3) by competition binding assay.

In ChEMBL document CHEMBL4376879, “Fragment-to-Lead Medicinal Chemistry Publications in 2018” (J Med Chem, 2020) one finds IC50 and Kd data, which are given here for seven molecules.

pIC50, pKd: −log10 of the molar value. A value given as a limit tells only on which side of the number the result lay.

Beta-2 adrenergic receptor, sequence (P07550 whole entry): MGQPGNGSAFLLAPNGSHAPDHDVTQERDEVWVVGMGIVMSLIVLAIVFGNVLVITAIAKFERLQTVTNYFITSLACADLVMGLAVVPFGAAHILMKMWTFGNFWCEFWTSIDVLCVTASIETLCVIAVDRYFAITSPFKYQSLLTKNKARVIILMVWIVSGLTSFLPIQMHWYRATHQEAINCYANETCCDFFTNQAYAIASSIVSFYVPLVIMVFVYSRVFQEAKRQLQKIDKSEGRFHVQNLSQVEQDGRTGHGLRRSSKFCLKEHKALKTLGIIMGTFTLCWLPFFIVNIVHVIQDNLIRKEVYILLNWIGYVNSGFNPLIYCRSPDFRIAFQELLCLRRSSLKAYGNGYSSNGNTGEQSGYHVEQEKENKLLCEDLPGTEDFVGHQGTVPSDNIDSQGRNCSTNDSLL
GTPase HRas, sequence (P01112 whole entry G12V, the tested form may be a part): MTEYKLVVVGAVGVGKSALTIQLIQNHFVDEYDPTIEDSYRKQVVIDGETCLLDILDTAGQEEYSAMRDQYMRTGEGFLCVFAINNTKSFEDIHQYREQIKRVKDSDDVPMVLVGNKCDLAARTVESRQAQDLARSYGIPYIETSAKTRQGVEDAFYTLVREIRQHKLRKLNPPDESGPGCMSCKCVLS
CREB-binding protein, sequence (Q92793 whole entry): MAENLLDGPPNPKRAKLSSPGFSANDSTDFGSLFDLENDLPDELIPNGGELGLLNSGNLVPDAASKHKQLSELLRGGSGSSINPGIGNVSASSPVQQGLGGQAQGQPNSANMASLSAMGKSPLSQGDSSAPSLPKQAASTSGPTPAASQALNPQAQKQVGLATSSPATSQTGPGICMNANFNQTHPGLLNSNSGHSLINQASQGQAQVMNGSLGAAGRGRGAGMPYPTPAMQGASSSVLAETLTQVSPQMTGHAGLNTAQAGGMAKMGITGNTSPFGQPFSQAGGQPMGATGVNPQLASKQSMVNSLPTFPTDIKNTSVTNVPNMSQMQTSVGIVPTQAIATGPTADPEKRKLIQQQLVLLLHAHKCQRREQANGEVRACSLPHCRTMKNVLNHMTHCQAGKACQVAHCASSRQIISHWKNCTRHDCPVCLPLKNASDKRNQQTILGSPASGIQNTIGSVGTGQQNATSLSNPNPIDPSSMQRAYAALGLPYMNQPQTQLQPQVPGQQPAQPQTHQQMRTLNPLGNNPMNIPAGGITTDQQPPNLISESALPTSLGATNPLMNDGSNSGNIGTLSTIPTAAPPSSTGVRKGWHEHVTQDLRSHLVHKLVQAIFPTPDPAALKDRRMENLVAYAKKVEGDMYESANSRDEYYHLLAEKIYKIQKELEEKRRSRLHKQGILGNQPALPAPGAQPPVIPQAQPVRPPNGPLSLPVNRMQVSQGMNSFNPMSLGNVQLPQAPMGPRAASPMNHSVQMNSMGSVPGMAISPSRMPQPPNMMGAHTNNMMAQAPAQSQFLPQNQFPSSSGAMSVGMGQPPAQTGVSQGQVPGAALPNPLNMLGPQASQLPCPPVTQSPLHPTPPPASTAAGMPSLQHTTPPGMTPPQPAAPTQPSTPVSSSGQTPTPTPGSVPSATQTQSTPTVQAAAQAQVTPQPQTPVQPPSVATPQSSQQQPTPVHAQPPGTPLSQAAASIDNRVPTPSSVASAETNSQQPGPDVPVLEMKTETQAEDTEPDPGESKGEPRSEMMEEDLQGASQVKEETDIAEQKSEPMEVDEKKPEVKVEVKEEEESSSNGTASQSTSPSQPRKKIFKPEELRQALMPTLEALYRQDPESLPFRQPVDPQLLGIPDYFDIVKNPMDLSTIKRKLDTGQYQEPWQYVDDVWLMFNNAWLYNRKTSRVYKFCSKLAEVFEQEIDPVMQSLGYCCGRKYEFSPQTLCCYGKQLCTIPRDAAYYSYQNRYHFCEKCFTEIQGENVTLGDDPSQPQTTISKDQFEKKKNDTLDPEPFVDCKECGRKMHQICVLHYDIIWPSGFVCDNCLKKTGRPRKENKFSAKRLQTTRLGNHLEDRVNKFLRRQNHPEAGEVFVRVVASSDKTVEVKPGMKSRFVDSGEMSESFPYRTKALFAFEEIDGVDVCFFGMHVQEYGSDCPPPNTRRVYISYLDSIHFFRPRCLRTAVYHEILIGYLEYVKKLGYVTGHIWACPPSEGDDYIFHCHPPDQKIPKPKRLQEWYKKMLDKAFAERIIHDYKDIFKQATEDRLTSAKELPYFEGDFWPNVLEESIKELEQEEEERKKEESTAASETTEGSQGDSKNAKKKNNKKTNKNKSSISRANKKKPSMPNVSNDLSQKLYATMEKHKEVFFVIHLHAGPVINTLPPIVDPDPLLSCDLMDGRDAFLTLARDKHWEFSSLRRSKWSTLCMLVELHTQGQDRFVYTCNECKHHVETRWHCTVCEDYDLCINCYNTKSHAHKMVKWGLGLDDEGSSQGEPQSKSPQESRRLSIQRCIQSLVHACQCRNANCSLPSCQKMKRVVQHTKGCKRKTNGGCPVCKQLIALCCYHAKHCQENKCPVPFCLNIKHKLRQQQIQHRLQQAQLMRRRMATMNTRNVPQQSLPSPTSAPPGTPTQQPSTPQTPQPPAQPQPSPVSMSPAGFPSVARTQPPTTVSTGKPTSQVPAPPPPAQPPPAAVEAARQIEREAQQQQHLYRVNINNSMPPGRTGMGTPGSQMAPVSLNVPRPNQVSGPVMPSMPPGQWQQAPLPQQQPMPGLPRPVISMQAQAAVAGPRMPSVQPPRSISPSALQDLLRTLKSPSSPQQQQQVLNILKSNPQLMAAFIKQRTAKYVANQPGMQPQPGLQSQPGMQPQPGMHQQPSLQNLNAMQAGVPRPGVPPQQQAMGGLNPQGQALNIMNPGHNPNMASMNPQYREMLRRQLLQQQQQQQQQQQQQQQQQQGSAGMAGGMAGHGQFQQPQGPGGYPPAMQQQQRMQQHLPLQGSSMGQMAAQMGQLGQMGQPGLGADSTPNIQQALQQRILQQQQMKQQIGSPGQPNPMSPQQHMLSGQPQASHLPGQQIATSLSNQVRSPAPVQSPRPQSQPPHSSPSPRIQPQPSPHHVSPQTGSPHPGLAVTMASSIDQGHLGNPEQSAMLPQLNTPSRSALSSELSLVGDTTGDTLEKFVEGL
cAMP and cAMP-inhibited cGMP 3',5'-cyclic phosphodiesterase 10A, sequence (Q9Y233 whole entry, the tested form may be a part): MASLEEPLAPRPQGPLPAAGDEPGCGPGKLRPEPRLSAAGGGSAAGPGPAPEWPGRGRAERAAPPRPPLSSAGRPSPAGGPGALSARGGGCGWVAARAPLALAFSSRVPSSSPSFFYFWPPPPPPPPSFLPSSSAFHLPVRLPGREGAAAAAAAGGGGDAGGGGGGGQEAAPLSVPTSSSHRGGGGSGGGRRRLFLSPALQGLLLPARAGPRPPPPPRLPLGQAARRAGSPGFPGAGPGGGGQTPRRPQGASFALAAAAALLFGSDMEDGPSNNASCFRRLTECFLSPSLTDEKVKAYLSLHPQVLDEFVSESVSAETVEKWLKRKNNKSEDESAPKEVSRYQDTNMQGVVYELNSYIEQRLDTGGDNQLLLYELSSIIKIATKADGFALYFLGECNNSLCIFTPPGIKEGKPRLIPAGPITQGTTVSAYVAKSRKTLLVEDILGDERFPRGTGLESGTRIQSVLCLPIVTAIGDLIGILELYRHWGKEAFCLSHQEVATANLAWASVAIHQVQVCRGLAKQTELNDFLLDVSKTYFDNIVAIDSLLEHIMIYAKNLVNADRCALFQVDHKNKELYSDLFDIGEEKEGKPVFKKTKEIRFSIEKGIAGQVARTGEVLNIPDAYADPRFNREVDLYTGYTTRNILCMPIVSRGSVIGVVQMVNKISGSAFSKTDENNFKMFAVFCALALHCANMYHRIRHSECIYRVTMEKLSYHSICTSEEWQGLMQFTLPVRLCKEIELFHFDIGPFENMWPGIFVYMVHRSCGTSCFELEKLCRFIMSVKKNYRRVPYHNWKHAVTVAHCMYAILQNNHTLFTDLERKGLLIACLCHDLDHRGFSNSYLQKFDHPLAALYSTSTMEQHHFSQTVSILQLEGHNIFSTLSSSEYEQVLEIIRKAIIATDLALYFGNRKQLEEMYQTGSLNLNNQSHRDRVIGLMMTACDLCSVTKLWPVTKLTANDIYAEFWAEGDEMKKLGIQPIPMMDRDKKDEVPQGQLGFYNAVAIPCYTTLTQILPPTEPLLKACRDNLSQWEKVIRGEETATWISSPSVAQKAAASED

Take `NCc1ccc(-c2ncccn2)cc1`: the pIC50 in assay [1] is 5.00. On to `Cc1nn(C)c(C)c1CCOc1c(-c2ccc3c(c2)c(CN(C)C)nn3C)ccc(F)c1F`, for which the pIC50 in assay [2] is > 9.00. Take `Cc1cc2nccc(-c3ccc(Cl)cc3)n2n1`: the pIC50 in assay [3] is > 5.00. Consider `COc1nc(-c2cccc3c2OCCO3)ccc1Nc1ccc(CN(C)C)cc1`, for which the pKd at GTPase HRas is 7.29. On to `CCOc1ccc(C(C)=O)cc1N`, for which the pKd at CREB-binding protein is 4.28. Consider `Clc1ccc(CNCc2ccc(-c3ncccn3)cc2)cc1Cl`, for which, in assay [1], the pIC50 was > 9.00. `O=C(Nc1ccc2ccccc2n1)c1ccco1`: the pKd on GTPase HRas is < 3.43.
